Earlier results in patent US6646013B1, “Nutrient formulations for disease reduction” (Nutri-Logics, priority 1999, dated 2003).
Where two headings read alike, the source gives them in different places.

Legend:
[1] = saturable absorption
[2] = test system: mice; details: oral doses
[3] = test system: rats; details: oral doses
[4] = animal fertility studies
[5] = circulation
[6] = not given; remark: listed apart in the source
[7] = test system: colorectal cancer; details: meta-analysis of twenty-four studies, calcium intake
[8] = not given; remark: listed apart in the source
[9] = gastrointestinal side effects (distress, bloating)
[10] = test system: colon carcinogenesis; details: rat colon model for carcinogenesis
[11] = test system: colon cancer; details: patients with chronic ulcerative colitis
[12] = not given; remark: listed apart in the source
[13] = not given; remark: listed apart in the source
[14] = normal parathyroid function and vitamin D sensitivity
[15] = test system: prostate cancer; details: vitamin E intake [37]
[16] = test system: vitamin K activity; details: vitamin K-deficient patients
[17] = not given; remark: listed apart in the source

Compound: O=C1O[C@H]([C@@H](O)CO)C(O)=C1O [Ascorbate, ascorbic acid]
- concentration at which absorption is half-maximal [1]: about 1 mM

Compound: CC(=O)N[C@@H](CS)C(=O)O [NAC, N-Acetyl-l-cysteine]
- plasma half-life of free NAC (estimated): about 2 hours
- time to peak plasma NAC concentration (oral administration): less than one
- bioavailability of the intact NAC molecule (oral, estimated): 4-10%
- time post-administration at which virtually no NAC is detected (plasma): 10 to 12 h
- LD50 [2]: 7888 mg/kg
- LD50 [3]: greater than 6000 mg/kg
- dose with no adverse effects reported [4]: up to 250 mg/kg
- dose with no teratogenic effects observed [4]: ≤ 2000 mg/kg

Compound: Cc1ncc(COP(=O)(O)O)c(C=O)c1O [Pyridoxal phosphate, pyridoxal 5′ phosphate]
- share of circulating vitamin B6 [5]: at least 60%

Compound: O=C(O)c1ccccc1O [Salicylate, salicylic acid]
- time to peak plasma concentrations ([6]; oral): ≤ 2 h
- time to significant plasma concentrations ([6]; oral): ≤ 30 min
- excreted in the urine as acyl glucuronide ([6]; urine): 5%
- excreted in the urine as free salicylic acid ([6]; urine): 10%
- excreted in the urine as salicylic phenolic glucuronide ([6]; urine): 10%
- excreted in the urine as salicyluric acid ([6]; urine): 75%

Compound: [Ca] [calcium]
- summary relative risk of colorectal cancer [7]: 0.89 (0.79-1.01)
- fraction complexed to anionic buffers ([8]; human plasma): about 10%
- fraction bound to plasma proteins ([8]; human plasma, primarily albumin): approximately 45%
- fraction of filtered Ca2+ reabsorbed ([8]; kidney): approximately 98%
- supplement dose above which generally not well tolerated [9]: exceeding 800 mg per day

Compound: COc1cc(/C=C/C(=O)CC(=O)/C=C/c2ccc(O)c(OC)c2)ccc1O [curcumin, (E,E)-1,7-Bis(4-hydroxy-3-methoxyphenyl)-1,6-heptadiene-3,5-dione]
- efficacy of pure form (>98%) versus food-grade curcumin [10]: equally effective

Compound: Nc1nc2ncc(CNc3ccc(C(=O)N[C@@H](CCC(=O)O)C(=O)O)cc3)nc2c(=O)[nH]1 [folic acid, N-[**4-[**[**(2-Amino-1,4-dihydro-4-oxo-6-pteridinyl)methyl]amino]benzoyl]-L-glutamic Acid]
- lower incidence of colon cancer versus no supplementation [11]: 62%
- dose with no adverse human effects ([12]; duration not stated): 15 mg/day
- dose with no adverse human effects ([12]; for 4 months): 10 mg/day

Compound: Cc1ncc(CO)c(CO)c1O [vitamin B6, pyridoxine]
- dose at which symptoms of dependency were noted ([13]; adults): 200 mg daily
- dose at which neurotoxicity may develop ([13]; prolonged ingestion): 200 mg per day

Compound: C=C1CC[C@H](O)C/C1=C/C=C1\CCC[C@]2(C)[C@@H]([C@H](C)CCCC(C)C)CC[C@@H]12 [vitamin D, (3β,5Z,7E)-9,10-Secocholesta-5,7,10(19)-triene-3-ol]
- continuous daily ingestion causing signs of hypervitaminosis [14]: ≥ 50,000 units daily

Compound: Cc1c(C)c2c(c(C)c1O)CCC(C)(CCCC(C)CCCC(C)CCCC(C)C)O2 (stereo not shown) [vitamin E, 3,4-Dihydro-2,5,7,8-tetramethyl-2-(4,8,12-trimethyltridecyl)-2H-1-benzopyran-6-ol]
- decrease in the incidence of prostate cancer [15]: 34%
- prolonged daily intake after which bleeding is a concern [16]: > 800 IU

Compound: Cyanocobalamin [vitamin B12]
- share of the body's stores in the liver [17]: ≤ 90%
